One experiment deals with STAT3. In words: STAT3 activation in LPS-stimulated BMDMs (western blot). Format: cell-based, mouse. On the procedure:
BMDM were prepared from 6- to 12-week-old mice as described 1 and cultured in RMPI-1640 medium supplemented with 10% fetal bovine serum (FBS), 2 mM L-glutamine, and 100 U/mL penicillin-streptomycin and mouse recombinant M-CSF ([…], Peprotech). For experiments, cells were seeded at concentration 10^6 cells/mL in tissue culture plates of various formats. The cells were treated with DI (250 μM (unless stated otherwise), cat #592498, Sigma), DMF (50 μM (unless stated otherwise), cat #242926, Sigma), 3-(ethoxycarbonyl)but-3-enoic acid (3MI, 5 μM, Aris Pharmaceuticals Inc.), 4-ethoxy-2-methylene-4-oxobutanoic acid (MI, Aris Pharmaceuticals Inc.) for 12 h and activated with lipopolysaccharide (LPS; 100 ng/mL; E. coli 0111:B4, Sigma) for 1 h or as indicated. In some experiments cells were stimulated with combination of LPS (20 ng/mL) and IFN-γ (50 ng/mL; Peprotech). In some experiments cells were treated with α-tocopherol (AT, 10 μM; Sigma), MitoTEMPO (MT, 500 μM; Sigma), N-acetylcysteine (NAC, 1 mM, Sigma), ethylester of GSH (EtGSH; 1 mM, Santa Cruz) or buthionene sulfoximine (BSO, 500 μM, Sigma) alone or in combination with DI for 12 h. […]
Cells were lysed in RIPA Lysis Buffer System (Santa Cruz) and heat-denatured at 95° C. for 5 min in reducing sample buffer (BioRad). […] Non-specific binding was blocked with 5% skim milk (or 5% BSA when phospho-proteins were analyzed), and membranes were probed with primary antibodies specific to Nrf2 (#12721), HO-1 (#70081), IκBζ (mouse specific, #93726), IκBζ(#9244), ATF3 (#D2Y5W), IRAK1 (#4504; sensitivity of IRAK1 detection diminishes upon IRAK1 K63 ubiquitination), phospho-IKK (Ser176/180, #2697), p62/SQSTM1 (#5114), phospho-eIF2α (Ser51, #9721), eIF2α (#5324) from Cell Signaling; GAPDH (sc-25778), IκBα (sc-1643), ATF3 (sc-188), SDHA (sc-166909) from Santa Cruz; NQO1 (ab28947) from Abeam, followed by incubation with anti-rabbit-HRP (1:10,000; sc-2030) or anti-mouse-HRP (1:10,000; sc-2031) from Santa Cruz and Clarity western ECL substrate (Bio-Rad). […]

Experiment [1] deals with imiquimod-induced psoriasis-like skin inflammation. In words: IMQ-induced psoriasis mouse model. The class given is in vivo. To be noted: DI daily i.p. On the procedure: RNA from cultured cells was isolated using a Total RNA I kit (OMEGA). RNA from mouse ear skin was extracted using RNAeasy mini kit (Qiagen) after tissue disruption with sterile zirconium beads on a MagNA Lyser (Roche). Isolated RNA was reverse transcribed using AffinityScript Multi-Temp reverse transcriptase (Agilent Technologies) according to the manufacturer's protocol. Reactions were performed in 96-well plates using a SYBR Green PCR Master mix (Thermo Fisher Scientific) using a LightCycler® 96 or LightCycler® 480 (Roche Diagnostics). All assays were performed at least in duplicates, and reaction mixtures in 20 μL volumes (96-plate) or 10 μL volumes (384-plate) were processed under the following cycling conditions: initial 10 min denaturation at 95° C., followed by 40 cycles at 95° C. for 10 s, 60° C. for 1 min. Threshold cycle (CT) values for each sample were determined by automated threshold analysis. Expression levels of all mRNAs were normalized to reference gene Actb in BMDMs or to Rpl19 in mouse keratinocytes and tissue samples; to ACTB in human blood monocytes or RPLP0 in human keratinocytes. […] Average ear thickness in each sample was quantified from images obtained at the identical settings using ImageJ. Thickness at 5 equidistant places in each image was quantified and mean of these values was used to represent results in each mouse.

Experiment [2] deals with LY1 and LY7 (GCB) cell lines. In words: DLBCL cell viability, resazurin assay, GCB subtype. The class given is cell-based. To be noted: LY1 and LY7, 4 days, refreshed daily; DI 125-250 μM.

“Also recorded” adds a separate entry of the source.

As to `C=C(CC(=O)OC)C(=O)OC` [DI, dimethyl itaconate], in the experiment on STAT3 (BMDMs, 12 h pretreatment), the “STAT3 activation (Y705 phosphorylation)” value was “inhibits STAT3 activation”. Also, the “inhibition of STAT3 activation, Nrf2 KO compared with WT” value in the experiment on STAT3 (Nrf2 KO BMDMs, DI 250 μM 12 h) was “no differences in extent of inhibition of STAT3 activation”. Further, the “IκBζ target gene expression (Defb4, S100a9, S100a7a, Lcn2) in ear skin” value in experiment [1] (IMQ 7 days, qPCR) is given as “markedly reduced”. In experiment [1] (IMQ topically on ears 7 days), the psoriatic skin pathology result is recorded as “significant improvement of the psoriatic pathology; also recorded: no detectable skin changes”. Further, in experiment [2], the “growth / toxicity, GCB DLBCL” value is listed as “not GCB cells”.

(Values after US20200375929A1, “METHODS AND COMPOSITIONS FOR THE TREATMENT OF DISEASES ASSOCIATED WITH CANCER, INFLAMMATION, OR IMMUNE RESPONSE” (Washington University, priority 2017, published 2020).)
